Results taken from US6521431B1, “Biodegradable cross-linkers having a polyacid connected to reactive groups for cross-linking polymer filaments” (Access Pharmaceuticals, Inc., priority 1999, dated 2003).
Like-named read-outs stand apart in the source and are kept apart here.

Assays:
[1] = Release of labeled macromolecule and labeled polymer backbone from degrading gel network; type: physicochemical; conditions: pH 7.3, 37° C., monitored at 550 nm (FIG. 7)
From the text: Gels were formed by the same method as above, but in this case other compounds were included during the preparation of the gels to study the release of small molecules from the network. In one case, the network itself was labeled with a polymerizable derivative of tetramethyl rhodamine (TMRAHMAm) in order to show the release (degradation) of the network itself (see FIG. 6). In the other case fluorescent rhodamine labeled albumin (Molecular Probes, Eugene Oreg.) was included in the uncharged network to show diffusive release of a macromolecule from the network (see FIG. 7).
To a 3 mL test tube was charged TMRAHMAm (3.0 mg, 5.0 μmol; 30 μL of a 100 mg/mL solution in CHCl3) which was then placed under a 7 mtorr vacuum for 3 hours. […]
Gels were suspended in buffers of different pH's: All buffers were adjusted to the same ionic strength. The release of the rhodamine labeled albumin and the rhodamine labeled HPMA was monitored at 550 nm. 750 μL of the sample was removed from the vial and periodically measured on a spectrophotometer. […]
The examination of the release of macromolecules entrained in the polymer network provides another way to study the performance of these materials. […] Moreover, the release of a model macromolecular solute (TMRA-albumin, molecular weight of ^˜66,000 Da.) from the network is measured spectrophotometrically.

[2] = pH 7.3
Method: (§1) The gels in this section were made at a mole feed ratio of 1.5 mole % cross-linker, as a copolymer with 98.5 mole % HPMA. Before the gels were polymerized, three 1.0 mL plastic syringes to be used as a slab gel template were silylanized by briefly incubating them in a heptane solution containing Sigmacote and oven drying at 90° C.
(§2) The wire was held in place by a septa which was placed over the tip of the syringe, as the solution polymerized. This formed a hole in the center of the cylinder, which was later used as a place to insert a wire hanger for the initially brittle and finally fragile gel, in order to measure its swelling and degradation kinetics as a change of mass with time. Gelation occurred within one to five minutes and the syringe was allowed to sit for 4 hours at room temperature. At this point the wire was removed from the center of the solid and the end of the plastic syringe was removed with a razor blade. The plunger was then used to extrude the gel from the syringe in 100 μL increments which were cut into small cylinders as they hung out from the end of the syringe. The gels were then placed on tarred wire holders and the initial mass of the assembly was determined. The resulting clear isotropic gels had the composition of poly(HPMA-co-HPMAGlySuc) 98.5:1.5. The gels were then incubated in pH 5, 100 mM sodium acetate buffer for 24 hours. They were then charged into vials of differing pH to study the degradation kinetics.
(§3) The gels were placed in 15 mL vials containing 10 mL of buffers. The masses of wire holders were determined before the gels were placed on them. The original mass of the gel in its relaxed state was also known by subtraction from the total mass of the assembly. The original dry mass of the gel was determined by drying three gels in their relaxed state from each composition and determining the dry mass of the gel. These values were then used to calculate the inverse of the volume fraction of polymer in the gel (Qv) respectively, using the densities of the polymer and water. The incubation solutions were changed each time the gel was weighed. The gels were incubated in a gyratory water-bath shaker (New Brunswick Scientific, New Brunswick, N.J.). The temperature was regulated to be 37±2° C. and the shaker was set to 30 rotations per minute.
(§4) The property of the change of volume of the polymer network can be measured by weighing the gel at different time points.
(§5) Since the swelling is related to network cross-link density by weighing the macroscopic gels at various times throughout their swelling one can obtain information about the change in cross-link density and thus the rate of degradation.

[3] = Degradation (degradative swelling) of HPMA-co-cross-linker hydrogels in buffer; conditions: HPMA-co-XL gels, 1.5 mole % cross-linker, pH 7.3 buffer, 37° C.
Method: as §1, §2, §3, §4, §5

[4] = Swelling of acrylic acid / cross-linker water absorbent gel in PBS; type: physicochemical; conditions: acrylic acid gel cross-linked with HPMAGlySuc, after incubating in PBS pH 7.4 for 3 days
Method: To a 5 mL test tube was charged acrylic acid (675 μL, 9.85 mmol), water (1120 μL) and HPMAGlySuc (73 mg, 0.15 mmol) (5b). The cross-linker was weighed into the mixture as described earlier. The mixture was homogenized and APS was added (66.6 μL, […]) from a 2.43 M solution in water. This solution was again mixed. To this solution was added TMED (137 μL, 0.287 mmol) from a 2.10 M pH 7.0 solution in water. The mixture was vortexed rapidly for 15 seconds and the polymerizing solution was charged into two 1.0 mL syringes that acted as a mold for the polymerization. The syringes were allowed to sit for four hours. The gel was removed from the syringe and cut into pieces (^˜100 μL cylinders). The mass of the cylinder was recorded and placed in a 20 mL vial containing 18 mL of PBS at pH 7.4. The gels were incubated overnight with buffer. The next day the buffer was changed twice in order to keep a constant external pH as the gel was charged. After incubating in PBS for 3 days the gel has swollen with water to approximately 20 times the total initial polymer volume.

Structure (SMILES): C=C(C)C(=O)NCC(C)OC(=O)COC(=O)COC(=O)CCC(=O)OCC(=O)OCC(=O)OC(C)CNC(=O)C(=C)C (stereo not shown) [HPMAGlyGlySuc, di[({[1-methyl-2-(2-methylprop-2-enoylamino)ethyl]oxycarbon-yl}methyl)oxycarbonyl]methylbutane-1,4-dioate]
- release of rhodamine labeled HPMA polymer backbone [1]: largely occurs to the greatest extent at the onset of complete degradation of the polymer
- release of rhodamine labeled albumin from the gel network [1]: more closely follows the swelling of the network
- degradation / hydrolysis and swelling kinetics of the gel (in words) [2]: fastest hydrolysis and swelling kinetics
- time to complete degradation of the gel [2]: about 5 days

Structure (SMILES): C=C(C)C(=O)NCC(C)OC(=O)CCC(=O)OC(C)CNC(=O)C(=C)C (stereo not shown) [HPMASuc, bis-1-methyl-2-(2-methylprop-2enoylamino)ethyl-1,4-butanedioate, reference compound]
- degradation / hydrolysis and swelling kinetics of the gel (in words) [3]: non-degradable

Structure (SMILES): C=C(C)C(=O)NCC(C)OC(=O)[C@H](C)OC(=O)CCC(=O)O[C@@H](C)C(=O)OC(C)CNC(=O)C(=C)C (stereo partly drawn) [HPMALacSuc, di(1S)-1-{[1-methyl-2-(2-methylprop-2-enoylamino)ethyl]oxycarbonyl}ethyl butane-1,4-dioate]
- degradation / hydrolysis and swelling kinetics of the gel (in words) [3]: slower degradation than the glycolic

Structure (SMILES): C=C(C)C(=O)NCC(C)OC(=O)COC(=O)CCC(=O)OCC(=O)OC(C)CNC(=O)C(=C)C (stereo not shown) [HPMAGlySuc, di{[1-methyl-2-(2-methylprop-2-enoylamino)ethyl]oxycarbonyl}methyl butane-1,4-dioate]
- swelling with water relative to total initial polymer volume [4]: approximately 20 times the total initial polymer volume
